Test systems include HCT-15; HT-29; T47D; TK-10; K562; HL-60; SK-MEL-28; SN12C; A549; OVCAR-5; MOLT-4; HOP-92; MDA-N; SR; RXF 393; NCI/ADR-RES; RPMI-8226; OVCAR-4; SNB-75.
What all share (assay): DTP human tumour cell line panel, 48 h

Molecules are shown by their SMILES.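 Where inhibition never reached the appropriate level, the endpoint shown equals the highest concentration tested. Otherwise, values were interpolated linearly from a five-concentration, 48-hour dose response in 96-well plates. The concentration for 50% growth inhibition is given as GI50.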 The source made the active and inactive calls. Rule as the data show it: active = GI50 up to about 1.1 µM and inactive = higher.

Consider `CN(C)c1ccc(/C=C/c2ccc3ccccc3[n+]2C)cc1`, for which the GI50 – broadly, the concentration that inhibits growth by half – with HCT-15 was 6.65 µM; in the assay with HT-29 it was 3.37 µM (inactive); in the assay with T47D it was 1.63 µM (inactive); in the assay on TK-10 it was 5.16 µM (inactive); in the assay with K562, 0.891 µM (active); with HL-60, 1.34 µM (inactive). In addition, the GI50 is 3.87 µM (inactive) in the assay on SK-MEL-28; 2.96 µM (inactive) with SN12C; 3.13 µM (inactive) in the assay with A549; 7.01 µM (inactive) with OVCAR-5; 1.47 µM (inactive) with MOLT-4; 1.99 µM (inactive) with HOP-92. Further, the GI50 in the assay with MDA-N was 2.03 µM (inactive); in the assay with SR it was 1.77 µM (inactive); in the assay with RXF 393 it was 2.81 µM (inactive); in the assay on NCI/ADR-RES, > 100 µM (inactive).

As for `C#C[C@]1(O)CC[C@H]2[C@@H]3CCC4=C/C(=N/NC(=O)c5cccc6cc7ccccc7nc56)CC[C@@H]4[C@H]3CC[C@@]21CC`, the GI50 with HCT-15 is 56 µM; in the assay with HT-29, 41.4 µM (inactive); in the assay on RPMI-8226 it was 71.6 µM (inactive); in the assay with T47D it was 21 µM (inactive); in the assay with K562, > 100 µM (inactive); in the assay on OVCAR-4, > 100 µM (inactive). The GI50 with HL-60 was 48 µM (inactive); in the assay on SK-MEL-28 it was > 100 µM (inactive); in the assay on SN12C it was 35.4 µM (inactive); with A549, 47 µM (inactive); in the assay on OVCAR-5 it was 77.3 µM (inactive); with SNB-75, > 100 µM (inactive). In addition, the GI50 in the assay on MOLT-4 is 0.0942 µM (active); in the assay with HOP-92, > 100 µM (inactive); in the assay with MDA-N, 93.3 µM (inactive); in the assay on SR, 38.5 µM (inactive); with RXF 393, > 100 µM (inactive); with NCI/ADR-RES, 58.9 µM (inactive).

Take `CCOC(=O)C1c2[nH]c3ccccc3c2CCN1C(=O)c1ccc(OC)o1` (centres undefined): the concentration for 50% growth inhibition (GI50) with HCT-15 is above 10 µM; in the assay on HT-29, > 10 µM (inactive); in the assay with RPMI-8226, > 10 µM (inactive); with T47D, > 10 µM (inactive); in the assay on TK-10 it was > 10 µM (inactive); with K562, > 10 µM (inactive). Also, the GI50 in the assay with OVCAR-4 is > 10 µM (inactive); with HL-60 it was > 10 µM (inactive); in the assay on SK-MEL-28, > 10 µM (inactive); with SN12C it was > 10 µM (inactive); in the assay with OVCAR-5 it was > 10 µM (inactive); with SNB-75 it was 5.78 µM (inactive). Also, the GI50 with MOLT-4, in the assay with HOP-92, in the assay on MDA-N, in the assay with SR, with RXF 393 and with NCI/ADR-RES was > 10 µM (inactive) in each case.

`O=C1c2ccccc2C(=O)N1CCSCC(CO)SCCN1C(=O)c2ccccc2C1=O` (centres undefined): the GI50 is above 100 µM with HCT-15; > 100 µM (inactive) in the assay on HT-29; 80.2 µM (inactive) in the assay with RPMI-8226; 86.9 µM (inactive) with T47D; > 100 µM (inactive) in the assay with TK-10; 75.3 µM (inactive) in the assay on K562. In addition, the GI50 is 48.6 µM (inactive) with OVCAR-4; 9.98 µM (inactive) with HL-60; > 100 µM (inactive) with SK-MEL-28; > 100 µM (inactive) in the assay with SN12C; > 100 µM (inactive) with A549; > 100 µM (inactive) in the assay with OVCAR-5. Also, the GI50 in the assay on MOLT-4 is 74 µM (inactive); in the assay on HOP-92, > 100 µM (inactive); with MDA-N, > 100 µM (inactive); with SR, > 100 µM (inactive); with RXF 393 it was > 100 µM (inactive); with NCI/ADR-RES it was 74.8 µM (inactive).

Take `CCN(CC)C(=S)SS(=O)(=O)c1ccc(NC(C)=O)cc1`: the GI50 is 30.9 µM in the assay on HCT-15; 24.8 µM (inactive) in the assay on HT-29; 18.5 µM (inactive) in the assay with RPMI-8226; 24.9 µM (inactive) with T47D; 32.6 µM (inactive) with TK-10; 33.9 µM (inactive) in the assay with K562. Also, the GI50 was 20.4 µM (inactive) in the assay with OVCAR-4; 23.9 µM (inactive) in the assay with HL-60; 17.3 µM (inactive) in the assay with SK-MEL-28; 18.2 µM (inactive) in the assay on SN12C; 2.21 µM (inactive) with A549; 24.5 µM (inactive) in the assay with OVCAR-5. Besides, the GI50 in the assay on SNB-75 is 25.4 µM (inactive); with HOP-92, 19.8 µM (inactive); in the assay on MDA-N, 27.6 µM (inactive); with SR it was 0.0226 µM (active); in the assay with RXF 393 it was 15.2 µM (inactive); with NCI/ADR-RES, 28 µM (inactive).

Turning to `CN(C)Cc1cc(/N=N/c2c(Cl)cccc2Cl)ccc1O`, the 50% growth inhibitory concentration (GI50) in the assay on HCT-15 is above 100 µM; in the assay with HT-29 it was 50.4 µM (inactive); in the assay with RPMI-8226 it was 74.8 µM (inactive); in the assay on T47D it was 42.6 µM (inactive); with TK-10 it was > 100 µM (inactive); in the assay on K562, 53.5 µM (inactive). Further, the GI50 was > 100 µM (inactive) with OVCAR-4; 68.4 µM (inactive) with HL-60; 71.8 µM (inactive) with SK-MEL-28; > 100 µM (inactive) with SN12C; 61.5 µM (inactive) in the assay on A549; > 100 µM (inactive) in the assay on SNB-75. Besides, the GI50 with MOLT-4 is 67.3 µM (inactive); in the assay on HOP-92 it was 31.9 µM (inactive); with MDA-N, > 100 µM (inactive); in the assay on SR it was 48.9 µM (inactive); in the assay on RXF 393, 23.4 µM (inactive); in the assay with NCI/ADR-RES, > 100 µM (inactive).

On to `COc1ccc2oc(=O)c(-c3cc4c(c(C)n3)c(=O)oc3ccc(OC)cc34)cc2c1`, for which the GI50 was above 100 µM in the assay on HCT-15; 80.5 µM (inactive) in the assay on HT-29; > 100 µM (inactive) with RPMI-8226; > 100 µM (inactive) with T47D; > 100 µM (inactive) in the assay with TK-10; > 100 µM (inactive) in the assay with K562. In addition, the GI50 in the assay on HL-60, with SK-MEL-28, in the assay on SN12C, with A549, with SNB-75 and in the assay on MOLT-4 was > 100 µM (inactive) each time. Also, the GI50 with HOP-92, in the assay on MDA-N, with SR, in the assay on RXF 393 and with NCI/ADR-RES was > 100 µM (inactive) each time.

As to `Cc1ccc(C2=Nc3cccc4cccc(c34)N2)cc1`, the GI50 is above 100 µM with HCT-15; > 100 µM (inactive) in the assay with HT-29; > 100 µM (inactive) with RPMI-8226; > 100 µM (inactive) in the assay with T47D; > 100 µM (inactive) in the assay with TK-10; > 100 µM (inactive) with K562. Moreover, the GI50 with OVCAR-4, in the assay on HL-60, with SK-MEL-28, in the assay on SN12C, with A549 and in the assay with SNB-75 was > 100 µM (inactive) in each case. In addition, the GI50 in the assay with MOLT-4, in the assay with HOP-92, with MDA-N, with SR, with RXF 393 and in the assay on NCI/ADR-RES was > 100 µM (inactive) throughout.

For `COc1cc(C2c3cc4c(cc3OC(NCCO)C2C)OCO4)cc(OC)c1O` (centres undefined), the concentration for 50% growth inhibition (GI50) in the assay on HCT-15 is 3.44 µM; with HT-29, 7.11 µM (inactive); in the assay on RPMI-8226, 3.23 µM (inactive); with T47D it was 18.2 µM (inactive); in the assay on TK-10, 12.8 µM (inactive); with OVCAR-4, > 100 µM (inactive). Moreover, the GI50 is 7.64 µM (inactive) in the assay on SK-MEL-28; 4.6 µM (inactive) in the assay with SN12C; 10.1 µM (inactive) in the assay with A549; 30.7 µM (inactive) in the assay with OVCAR-5; 7.45 µM (inactive) with SNB-75; 86.5 µM (inactive) with HOP-92. Further, the GI50 was 1.61 µM (inactive) in the assay with MDA-N, 6.12 µM (inactive) in the assay with SR, 20.4 µM (inactive) in the assay on RXF 393 and 4.58 µM (inactive) with NCI/ADR-RES.

With `C=CCC1(C(=O)OC)CCC/C(=N\O)C1` (centres undefined), the GI50 in the assay with HCT-15 is above 10 µM; with HT-29 it was > 10 µM (inactive); in the assay with RPMI-8226, > 10 µM (inactive); in the assay on T47D, > 10 µM (inactive); in the assay with TK-10 it was > 10 µM (inactive); with K562 it was > 10 µM (inactive). The GI50 with OVCAR-4, with HL-60, in the assay with SK-MEL-28, in the assay with SN12C, in the assay with A549 and in the assay on SNB-75 was > 10 µM (inactive) each time. In addition, the GI50 in the assay with MOLT-4, in the assay on HOP-92, in the assay on MDA-N, in the assay on SR and in the assay on NCI/ADR-RES was > 10 µM (inactive) in each case.

For `COc1ccc(NC(C)=O)c(C(=O)CCNC(C)=O)c1`, the GI50 in the assay on HCT-15 was above 100 µM; in the assay with HT-29, > 100 µM (inactive); in the assay with RPMI-8226 it was > 100 µM (inactive); in the assay on T47D, > 100 µM (inactive); in the assay with TK-10, > 100 µM (inactive); in the assay on OVCAR-4 it was > 100 µM (inactive). Besides, the GI50 in the assay with HL-60, with SN12C, in the assay with A549, in the assay with OVCAR-5, with SNB-75 and with MOLT-4 was > 100 µM (inactive) in each case. Moreover, the GI50 with HOP-92, in the assay on MDA-N, with SR, in the assay with RXF 393 and in the assay on NCI/ADR-RES was > 100 µM (inactive) in each case.

For `CCNC(=S)N/N=C1\C(=O)Nc2ccc([N+](=O)[O-])cc21`, the GI50 is 49.3 µM with HCT-15; 49.5 µM (inactive) in the assay with HT-29; > 100 µM (inactive) in the assay on RPMI-8226; 31.6 µM (inactive) in the assay on T47D; 18.2 µM (inactive) in the assay on TK-10; 52.7 µM (inactive) in the assay with K562. Further, the GI50 in the assay with OVCAR-4 is 25.6 µM (inactive); in the assay with HL-60, 92.9 µM (inactive); in the assay with SK-MEL-28 it was 48 µM (inactive); in the assay on SN12C, 31.7 µM (inactive); in the assay on A549, 35.7 µM (inactive); in the assay on OVCAR-5, > 100 µM (inactive). The GI50 in the assay on MOLT-4 is 22.4 µM (inactive); with HOP-92, 34 µM (inactive); in the assay on MDA-N it was > 100 µM (inactive); with SR it was 31.3 µM (inactive); with RXF 393, 26 µM (inactive); in the assay on NCI/ADR-RES, 32.8 µM (inactive).

Values taken from ChEMBL document CHEMBL1201862, “PubChem BioAssay data set” (2004).
